Tests used:
[1] = target: IL-17A(FLAG-tagged): IL-17RA(His-tagged) (Homo sapiens, UniProt Q16552, K93Q); assay: IL-17A(FLAG-tagged): IL-17RA(His-tagged) binding disruption Eu-HTRF assay
From the text: IL-17A(FLAG-tagged): IL-17RA(His-tagged) binding disruption Eu-HTRF assay An antibody directed against the FLAG tag of IL-17A (SEQ ID NO: 1) is labeled with the HTRF donor chromophore (Europium-cryptate). IL-17A is present as a dimer that is “locked into” this quaternary structure due to the formation of loop-spanning intramolecular disulfide bridges. The construct of IL-17RA used in the assay excludes the […] portion of the receptor and is fused to a C-terminal 10×His tag (SEQ ID NO:2). An antibody directed against the His tag of the IL-17RA chimera is labeled with the HTRF acceptor chromophore (“D2”). The fluorescence-resonance energy transfer (FRET) depends on the vicinity of the donor chromophore to the acceptor, and interruption of the binding between the IL-17A and IL-17RA causes the reduction/loss of FRET. Therefore, this assay allows to evaluate the compound effect on the binding IL-17A and IL-17RA by monitoring the fluorescence intensity of donor vs acceptor. The assay is run as described below.
40 nl of 2-fold serial diluted compound solution for total 22 dilution points is added into each well of a 1536-well, white, low-volume, non-binding plate (Greiner #782904), then 2 μl of FLAG tagged IL-17A at 2× final concentration (1 μM) in solution of PBS+0.01% Triton-X100 is added to each well. The assay plate is briefly centrifuged then incubated for 1 h at rt. A mixed solution is prepared containing 2×5 nM 10HIS×IL-17RA, 2×2.5 nM Eu-anti-FLAG (CISBIO), 2×5 nM D2-anti-HIS (CISBIO) in PBS+0.01% Triton-X100+200 mM Potassium Fluoride (Sigma 60238) and 2 μl of mix is added to each well of the assay plate. The plate is briefly centrifuged then incubated for 2 h at rt. The HTRF intensities at the wavelength of donor (615 nm) and acceptor (665 nm) are measured using BMG Pherastar. The ratio between intensities at two wavelengths is calculated and plotted against the compound concentration and the data is fitted to a one-site competition model to yield IC50 of the compound.

[2] = tested on: IL-17A-induced G-CSF production in human normal keratinocyte (NHK); assay: NHK assay: IL-17A-induced G-CSF production in normal human keratinocytes; assay type: cell-based; conditions: 24 h, IL-17A 5 ng/mL
Method in brief: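 Adult keratinocytes at 3000-4000 cells/well; recombinant human IL-17A pre-incubated 1 h at rt with titrated compound, then added to cells (final 5 ng/mL IL-17A, 0.2% DMSO, 5% FBS) for 24 h at 37 °C. Supernatant G-CSF quantified by HTRF against a standard curve to give IC50; viability checked by CellTiter-Glo versus DMSO.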

[3] = class of the average IC50 where tested more than once
[4] = Homo sapiens, Keratinocyte, class of the average IC50 where tested more than once

UniProt Q16552, sequence (Q16552 with tags, fused parts or gaps K93Q): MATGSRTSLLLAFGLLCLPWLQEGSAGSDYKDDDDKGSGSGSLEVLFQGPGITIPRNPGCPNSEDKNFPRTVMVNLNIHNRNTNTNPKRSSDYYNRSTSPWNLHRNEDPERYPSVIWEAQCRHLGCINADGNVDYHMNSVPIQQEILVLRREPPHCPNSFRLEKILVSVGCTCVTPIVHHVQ

| Structure (SMILES) | IC50 [1, 3] [nM] | IC50 ([1]; value in brackets, Table 4) [nM] | IC50 [2, 4] [nM] | IC50 ([2]; Homo sapiens, Keratinocyte, value in brackets, Table 4) [nM] | IC50 [2, 3] [nM] |
| --- | --- | --- | --- | --- | --- |
| O=C(N[C@H](c1cn2ncc(C[C@@H]3C[C@@H](C(F)(F)F)NC3=O)cc2n1)C1CCC(F)(F)CC1)c1nonc1C1CC1 [Example 60, 4-Cyclopropyl-N—[(S)-(4,4-difluorocyclohexyl)-[7-[[(3R,5S)-2-oxo-5-(trifluoromethyl)pyrrolidin-3-yl]methyl]imidazo[1,2-b]pyridazin-2-yl]methyl]-1,2,5-oxadiazole-3-carboxamide] | 400 to 4000 | 1140 | > 4000 | > 4000 | – |
| O=C(N[C@H](c1cn2ncc(CC3CCCCNC3=O)cc2n1)C1CCC(F)(F)CC1)c1nonc1C1CC1 (single isomer, unassigned) [Example 26, 4-Cyclopropyl-N—((S)-(4,4-difluorocyclohexyl)(7-(((S*)-2-oxoazepan-3-yl)methyl)imidazo[1,2-b]pyridazin-2-yl)methyl)-1,2,5-oxadiazole-3-carboxamide] | 400 to 4000 | – | – | – | > 4000 |
| Cc1nonc1C(=O)N[C@H](c1cn2ncc(C[C@H]3CC[C@H](C(F)(F)F)NC3=O)cc2n1)C1CCC(F)(F)CC1 (relative stereo) [Example 46, N—((S)-(4,4-difluorocyclohexyl)(7-(((3R*,6R*)-2-oxo-6-(trifluoromethyl)piperidin-3-yl)methyl)imidazo[1,2-b]pyridazin-2-yl)methyl)-4-methyl-1,2,5-oxadiazole-3-carboxamide] | > 4000 | – | > 4000 | – | – |
| CC(C)(CC[C@H](NC(=O)c1nonc1C1CC1)c1cn2ncc(CC3C[C@@](C)(C(F)(F)F)NC3=O)cc2n1)C(F)(F)F (single isomer, unassigned) [Example 58, 4-Cyclopropyl-N—((S)-5,5,5-trifluoro-4,4-dimethyl-1-(7-(((3R*,5S)-5-methyl-2-oxo-5-(trifluoromethyl)pyrrolidin-3-yl)methyl)imidazo[1,2-b]pyridazin-2-yl)pentyl)-1,2,5-oxadiazole-3-carboxamide] | < 400 | – | – | – | 400 to 4000 |
| C[C@H](c1cnn2cc([C@@H](NC(=O)c3nonc3C3CC3)C3CCC(F)(F)CC3)nc2c1)[C@@H]1C[C@@H](C(F)(F)F)NC1=O (relative stereo) [Example 81, 4-Cyclopropyl-N—((S)-(4,4-difluorocyclohexyl)(7-((S*)-1-((3S*,5S)-2-oxo-5-(trifluoromethyl)pyrrolidin-3-yl)ethyl)imidazo[1,2-b]pyridazin-2-yl)methyl)-1,2,5-oxadiazole-3-carboxamide] | < 400 | – | < 400 | – | – |
| COc1nonc1C(=O)N[C@H](c1cn2ncc(CC3C[C@@H](C(F)(F)F)NC3=O)cc2n1)C1CCC(F)(F)CC1 (single isomer, unassigned) [Example 7, N—[(S)-(4,4-Difluorocyclohexyl)-[7-[[(3R*,5S)-2-oxo-5-(trifluoromethyl)pyrrolidin-3-yl]methyl]imidazo[1,2-b]pyridazin-2-yl]methyl]-4-methoxy-1,2,5-oxadiazole-3-carboxamide] | < 400 | – | – | – | < 400 |
| O=C(N[C@H](c1cn2ncc(CC3CCCCNC3=O)cc2n1)C1CCC(F)(F)CC1)c1nonc1C1CC1 (single isomer, unassigned) [Example 25, 4-Cyclopropyl-N—((S)-(4,4-difluorocyclohexyl(7-(((R*)-2-oxoazepan-3-yl)methyl)imidazo[1,2-b]pyridazin-2-yl)methyl)-1,2,5-oxadiazole-3-carboxamide] | 400 to 4000 | – | > 4000 | – | – |
| O=C(N[C@H](c1cn2ncc(C[C@@H]3C(=O)NC[C@@H]3C(F)(F)F)cc2n1)C1CCC(F)(F)CC1)c1nonc1C1CC1 (relative stereo) [Example 49, 4-Cyclopropyl-N—((S)-(4,4-difluorocyclohexyl)(7-(((3S*,4R*)-2-oxo-4-(trifluoromethyl)pyrrolidin-3-yl)methyl)imidazo[1,2-b]pyridazin-2-yl)methyl)-1,2,5-oxadiazole-3-carboxamide] | 400 to 4000 | – | > 4000 | – | – |
| O=C(N[C@H](c1cn2ncc(CC3CCNC3=O)cc2n1)C1CCC(F)(F)CC1)c1nonc1C1CC1 (single isomer, unassigned) [Example 22, 4-Cyclopropyl-N—[(S)-(4,4-difluorocyclohexyl)-[7-[[(3S*)-2-oxopyrrolidin-3-yl]methyl]imidazo[1,2-b]pyridazin-2-yl]methyl]-1,2,5-oxadiazole-3-carboxamide] | > 4000 | – | – | – | > 4000 |
| N#CCC1(Cc2cnn3cc([C@@H](NC(=O)c4nonc4C4CC4)C4CCC(F)(F)CC4)nc3c2)C[C@@H](C(F)(F)F)NC1=O (single isomer, unassigned) [Example 104, N—((S)-(7-(((3S*,5S)-3-(Cyanomethyl)-2-oxo-5-(trifluoromethyl)pyrrolidin-3-yl)methyl)imidazo[1,2-b]pyridazin-2-yl)(4,4-difluorocyclohexyl)methyl)-4-cyclopropyl-1,2,5-oxadiazole-3-carboxamide] | < 400 | – | < 400 | – | – |
| O=C(N[C@H](c1cn2ncc(CC3CC4(CC4)NC3=O)cc2n1)C1CCC(F)(F)CC1)c1nonc1C1CC1 (stereo partly drawn) [Example 62, 4-Cyclopropyl-N-((1S)-(4,4-difluorocyclohexyl)(7-((5-oxo-4-azaspiro[2.4]heptan-6-yl)methyl)imidazo[1,2-b]pyridazin-2-yl)methyl)-1,2,5-oxadiazole-3-carboxamide] | 400 to 4000 | – | > 4000 | – | – |
| CC[C@@H](c1cnn2cc([C@@H](NC(=O)c3nonc3C3CC3)C3CCC(F)(F)CC3)nc2c1)[C@@H]1C[C@@H](C(F)(F)F)NC1=O (single isomer, unassigned) [Example 19] | < 400 | – | < 400 | – | – |
| C[C@]1(Cc2cnn3cc([C@@H](NC(=O)c4nonc4C4CC4)C4CCC(F)(F)CC4)nc3c2)C[C@@H](C(F)(F)F)NC1=O (single isomer, unassigned) [Example 97] | < 400 | – | < 400 | – | – |
| O=C(N[C@H](c1cn2ncc([C@@H](O)[C@H]3C[C@@H](C(F)(F)F)NC3=O)cc2n1)C1CCC(F)(F)CC1)c1nonc1C1CC1 (relative stereo) [Example 73] | 400 to 4000 | – | 400 to 4000 | – | – |
| Cc1nonc1C(=O)N[C@H](c1cn2ncc(C[C@H]3CC[C@@H](C(F)(F)F)NC3=O)cc2n1)C1CCC(F)(F)CC1 (relative stereo) [Example 47, N—((S)-(4,4-difluorocyclohexyl)7-(((3R*,6S*)-2-oxo-6-(trifluoromethyl)piperidin-3-yl)methyl)imidazo[1,2-b]pyridazin-2-yl)methyl)-4-methyl-1,2,5-oxadiazole-3-carboxamide] | < 400 | – | 400 to 4000 | – | – |
| O=C(N[C@H](c1cn2ncc(C[C@@H]3C[C@@H](C(F)(F)F)NC3=O)cc2n1)C1CCC(F)(F)CC1)c1nonc1C1CC1 (relative stereo) [Example 70, 4-Cyclopropyl-N—((S)-(4,4-difluorocyclohexyl)(7-(((3R*,5S*)-2-oxo-5-(trifluoromethyl)pyrrolidin-3-yl)methyl)imidazo[1,2-b]pyridazin-2-yl)methyl)-1,2,5-oxadiazole-3-carboxamide] | < 400 | – | < 400 | – | – |
| O=C(N[C@H](c1cn2ncc(C[C@]34CCC[C@@H](C3)NC4=O)cc2n1)C1CCC(F)(F)CC1)c1nonc1C1CC1 (relative stereo) [Example 12, 4-Cyclopropyl-N—[(S)-(4,4-difluorocyclohexyl)-[7-[[(1S*5S*)-7-oxo-6-azabicyclo[3.2.1]octan-1-yl]methyl]imidazo[1,2-b]pyridazin-2-yl]methyl]-1,2,5-oxadiazole-3-carboxamide] | > 4000 | – | 400 to 4000 | – | – |
| CC1(Cc2cnn3cc([C@@H](NC(=O)c4nonc4C4CC4)C4CCC(F)(F)CC4)nc3c2)CCCNC1=O (single isomer, unassigned) [Example 27, 4-Cyclopropyl-N—((S)-(4,4-difluorocyclohexyl)(7-(((R*)-3-methyl-2-oxopiperidin-3-yl)methyl)imidazo[1,2-b]pyridazin-2-yl)methyl)-1,2,5-oxadiazole-3-carboxamide] | 400 to 4000 | – | – | – | > 4000 |

From US20260258048A1, “LACTAM-CONTAINING IMIDAZOPYRIDAZINE IL-17 INHIBITOR COMPOUNDS” (Janssen Pharmaceutica NV, priority 2023, published 2026)
